Data from ChEMBL document CHEMBL1139192, “Novel bis(indolyl)maleimide pyridinophanes that are potent, selective inhibitors of glycogen synthase kinase-3” (Bioorg Med Chem Lett, 2007).

Assays:
[1] = molecular target: Tyrosine-protein kinase SYK (Homo sapiens) (UniProt P43405); assay: Inhibition of human Syk at 1 uM relative to control; values are per cent of control
[2] = molecular target: Ribosomal protein S6 kinase alpha-3 (Homo sapiens) (UniProt P51812); assay: Inhibition of human Rsk3 at 1 uM relative to control; values are per cent of control
[3] = molecular target: Rho-associated protein kinase 2 (Homo sapiens) (UniProt O75116); assay: Inhibition of human ROCK2 at 1 uM relative to control; values are per cent of control
[4] = molecular target: Tyrosine-protein kinase Lyn (Mus musculus) (UniProt P25911); assay: Inhibition of mouse Lyn at 1 uM relative to control; values are per cent of control
[5] = molecular target: Hepatocyte growth factor receptor (Homo sapiens) (UniProt P08581); assay: Inhibition of human Met at 1 uM relative to control; values are per cent of control
[6] = molecular target: Platelet-derived growth factor receptor alpha (Homo sapiens) (UniProt P16234); assay: Inhibition of human PDGFRalpha at 1 uM relative to control; values are per cent of control
[7] = molecular target: T1, Protein kinase C zeta type (Homo sapiens) (UniProt Q05513); assay: Residual activity of human PKCzeta at 1 uM relative to control
T1 sequence (whole entry): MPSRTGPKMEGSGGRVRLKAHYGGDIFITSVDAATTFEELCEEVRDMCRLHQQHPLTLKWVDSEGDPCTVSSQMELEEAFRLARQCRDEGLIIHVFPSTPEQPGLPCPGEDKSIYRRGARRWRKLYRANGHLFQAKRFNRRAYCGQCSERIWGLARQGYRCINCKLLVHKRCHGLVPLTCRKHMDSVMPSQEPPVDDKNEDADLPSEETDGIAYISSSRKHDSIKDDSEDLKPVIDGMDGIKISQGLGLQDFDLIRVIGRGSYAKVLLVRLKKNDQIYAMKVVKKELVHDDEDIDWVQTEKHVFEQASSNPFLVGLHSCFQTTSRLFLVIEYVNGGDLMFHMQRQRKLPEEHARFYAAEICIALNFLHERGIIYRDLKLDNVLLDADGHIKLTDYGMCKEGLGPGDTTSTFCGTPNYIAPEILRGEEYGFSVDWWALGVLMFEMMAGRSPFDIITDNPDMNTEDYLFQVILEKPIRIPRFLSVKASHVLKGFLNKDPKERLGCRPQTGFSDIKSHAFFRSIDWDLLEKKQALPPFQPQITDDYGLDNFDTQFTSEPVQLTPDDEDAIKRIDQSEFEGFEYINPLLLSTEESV

[8] = molecular target: Tyrosine-protein kinase ABL2 (Mus musculus) (UniProt Q4JIM5); assay: Residual activity of mouse Arg at 1 uM relative to control
[9] = molecular target: Macrophage colony-stimulating factor 1 receptor (Homo sapiens) (UniProt P07333); assay: Residual activity of human Fms at 1 uM relative to control
[10] = molecular target: T2, Serine/threonine-protein kinase 3 (Homo sapiens) (UniProt Q13188); assay: Inhibition of human MST2 at 1 uM relative to control; values are per cent of control
T2 sequence (whole entry): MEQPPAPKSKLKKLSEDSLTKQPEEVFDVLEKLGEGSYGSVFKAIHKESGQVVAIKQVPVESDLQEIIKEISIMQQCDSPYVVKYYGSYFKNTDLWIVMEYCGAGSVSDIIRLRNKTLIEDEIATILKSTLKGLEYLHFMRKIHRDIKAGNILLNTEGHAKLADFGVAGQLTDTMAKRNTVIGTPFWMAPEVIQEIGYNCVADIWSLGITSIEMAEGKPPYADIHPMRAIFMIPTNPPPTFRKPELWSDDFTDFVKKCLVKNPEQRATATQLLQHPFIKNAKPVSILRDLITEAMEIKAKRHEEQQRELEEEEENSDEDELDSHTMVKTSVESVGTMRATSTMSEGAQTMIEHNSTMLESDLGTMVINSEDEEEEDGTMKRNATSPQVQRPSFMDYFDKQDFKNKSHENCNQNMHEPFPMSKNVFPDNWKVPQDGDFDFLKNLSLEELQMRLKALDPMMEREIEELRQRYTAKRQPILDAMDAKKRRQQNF

[11] = species: Homo sapiens; assay: Residual activity of human PKBalpha at 1 uM relative to control
[12] = species: Homo sapiens; assay: Residual activity of human PKBgamma at 1 uM relative to control
[13] = molecular target: 3-phosphoinositide-dependent protein kinase 1 (Homo sapiens) (UniProt O15530); assay: Inhibition of human PDK1 at 1 uM relative to control; values are per cent of control
[14] = molecular target: T3, Dual specificity mitogen-activated protein kinase kinase 4 (Mus musculus) (UniProt P47809); assay: Inhibition of mouse MKK4 Met at 1 uM relative to control; values are per cent of control
T3 sequence (whole entry): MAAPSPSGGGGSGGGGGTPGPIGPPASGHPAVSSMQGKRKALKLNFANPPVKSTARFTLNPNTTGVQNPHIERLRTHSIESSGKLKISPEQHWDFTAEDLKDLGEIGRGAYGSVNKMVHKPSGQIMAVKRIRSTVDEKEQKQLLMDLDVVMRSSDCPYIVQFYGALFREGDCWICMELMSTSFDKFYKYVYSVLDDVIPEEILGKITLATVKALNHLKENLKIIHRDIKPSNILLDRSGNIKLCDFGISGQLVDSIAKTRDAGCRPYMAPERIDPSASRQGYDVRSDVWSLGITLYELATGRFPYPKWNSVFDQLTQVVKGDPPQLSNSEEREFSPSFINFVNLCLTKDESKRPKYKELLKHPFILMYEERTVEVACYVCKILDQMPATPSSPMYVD

[15] = tested on: Saccharomyces cerevisiae; assay: Residual activity of yeast CK1 at 1 uM relative to control
[16] = molecular target: Tyrosine-protein kinase ABL1 (Mus musculus) (UniProt P00520); assay: Residual activity of mouse Abl kinase at 1 uM relative to control
[17] = molecular target: Ribosomal protein S6 kinase beta-1 (Homo sapiens) (UniProt P23443); assay: Inhibition of human p70S6K at 1 uM relative to control; values are per cent of control
[18] = molecular target: Glycogen synthase kinase-3 beta (Homo sapiens, UniProt P49841); assay: Inhibition of human recombinant GSK3-beta
[19] = molecular target: MAP kinase-activated protein kinase 2 (Homo sapiens) (UniProt P49137); assay: Inhibition of MAPKAPK2 at 1 uM relative to control; values are per cent of control

Sequence of Rho-associated protein kinase 2 (Homo sapiens) (O75116 whole entry, looked up): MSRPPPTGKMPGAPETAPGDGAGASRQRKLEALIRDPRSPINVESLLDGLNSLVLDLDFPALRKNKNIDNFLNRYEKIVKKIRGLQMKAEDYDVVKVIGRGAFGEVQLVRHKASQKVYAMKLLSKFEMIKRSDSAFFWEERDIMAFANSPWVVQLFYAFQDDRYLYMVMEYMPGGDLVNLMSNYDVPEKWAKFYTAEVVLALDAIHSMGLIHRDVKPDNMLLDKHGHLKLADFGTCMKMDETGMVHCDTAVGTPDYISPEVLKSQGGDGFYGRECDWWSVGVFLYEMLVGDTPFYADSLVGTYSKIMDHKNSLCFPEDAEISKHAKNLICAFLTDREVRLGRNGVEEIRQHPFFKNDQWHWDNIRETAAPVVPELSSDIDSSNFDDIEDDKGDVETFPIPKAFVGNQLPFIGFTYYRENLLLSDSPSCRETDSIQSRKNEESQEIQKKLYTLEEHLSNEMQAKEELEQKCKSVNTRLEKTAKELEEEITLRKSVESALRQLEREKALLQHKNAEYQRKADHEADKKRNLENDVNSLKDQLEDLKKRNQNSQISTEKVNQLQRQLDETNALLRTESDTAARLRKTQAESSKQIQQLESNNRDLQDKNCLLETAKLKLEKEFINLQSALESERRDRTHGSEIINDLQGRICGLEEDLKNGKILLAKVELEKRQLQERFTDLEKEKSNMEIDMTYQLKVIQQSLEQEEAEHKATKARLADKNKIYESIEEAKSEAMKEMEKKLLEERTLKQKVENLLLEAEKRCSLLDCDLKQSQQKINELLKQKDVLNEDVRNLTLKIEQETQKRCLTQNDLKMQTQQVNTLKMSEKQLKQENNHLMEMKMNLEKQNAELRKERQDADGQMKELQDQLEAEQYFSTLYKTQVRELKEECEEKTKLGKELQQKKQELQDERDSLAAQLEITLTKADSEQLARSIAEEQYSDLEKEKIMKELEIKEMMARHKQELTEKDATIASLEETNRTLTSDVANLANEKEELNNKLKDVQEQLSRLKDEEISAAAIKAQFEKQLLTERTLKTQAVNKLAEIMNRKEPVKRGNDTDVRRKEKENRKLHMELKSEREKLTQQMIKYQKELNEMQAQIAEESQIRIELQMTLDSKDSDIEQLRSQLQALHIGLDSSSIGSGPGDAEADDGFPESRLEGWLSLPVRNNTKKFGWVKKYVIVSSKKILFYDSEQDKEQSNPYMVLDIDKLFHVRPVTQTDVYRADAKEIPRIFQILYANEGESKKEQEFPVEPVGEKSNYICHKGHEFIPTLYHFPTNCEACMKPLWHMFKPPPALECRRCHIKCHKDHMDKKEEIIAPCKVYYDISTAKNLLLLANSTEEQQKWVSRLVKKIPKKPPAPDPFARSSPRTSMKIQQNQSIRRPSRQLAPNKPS
Sequence of Ribosomal protein S6 kinase alpha-3 (Homo sapiens) (P51812 whole entry): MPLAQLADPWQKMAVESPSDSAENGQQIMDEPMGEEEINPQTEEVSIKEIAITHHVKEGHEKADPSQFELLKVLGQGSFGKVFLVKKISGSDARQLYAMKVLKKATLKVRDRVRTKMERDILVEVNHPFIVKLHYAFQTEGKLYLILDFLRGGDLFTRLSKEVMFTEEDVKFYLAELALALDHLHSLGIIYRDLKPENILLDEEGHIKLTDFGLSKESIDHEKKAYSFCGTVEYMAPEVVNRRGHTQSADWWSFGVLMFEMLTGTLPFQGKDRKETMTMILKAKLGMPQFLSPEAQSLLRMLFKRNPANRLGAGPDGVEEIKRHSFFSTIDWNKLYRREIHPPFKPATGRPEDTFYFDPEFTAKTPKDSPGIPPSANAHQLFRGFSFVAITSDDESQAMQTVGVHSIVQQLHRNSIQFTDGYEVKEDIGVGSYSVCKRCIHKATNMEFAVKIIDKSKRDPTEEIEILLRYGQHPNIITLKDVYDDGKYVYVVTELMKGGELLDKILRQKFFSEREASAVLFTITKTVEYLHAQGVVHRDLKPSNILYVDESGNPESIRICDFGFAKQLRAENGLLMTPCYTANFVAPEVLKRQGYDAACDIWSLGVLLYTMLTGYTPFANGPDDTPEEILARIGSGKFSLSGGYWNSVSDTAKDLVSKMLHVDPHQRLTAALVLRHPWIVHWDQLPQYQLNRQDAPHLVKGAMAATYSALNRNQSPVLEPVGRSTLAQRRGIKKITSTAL
Sequence of Macrophage colony-stimulating factor 1 receptor (Homo sapiens) (P07333 whole entry): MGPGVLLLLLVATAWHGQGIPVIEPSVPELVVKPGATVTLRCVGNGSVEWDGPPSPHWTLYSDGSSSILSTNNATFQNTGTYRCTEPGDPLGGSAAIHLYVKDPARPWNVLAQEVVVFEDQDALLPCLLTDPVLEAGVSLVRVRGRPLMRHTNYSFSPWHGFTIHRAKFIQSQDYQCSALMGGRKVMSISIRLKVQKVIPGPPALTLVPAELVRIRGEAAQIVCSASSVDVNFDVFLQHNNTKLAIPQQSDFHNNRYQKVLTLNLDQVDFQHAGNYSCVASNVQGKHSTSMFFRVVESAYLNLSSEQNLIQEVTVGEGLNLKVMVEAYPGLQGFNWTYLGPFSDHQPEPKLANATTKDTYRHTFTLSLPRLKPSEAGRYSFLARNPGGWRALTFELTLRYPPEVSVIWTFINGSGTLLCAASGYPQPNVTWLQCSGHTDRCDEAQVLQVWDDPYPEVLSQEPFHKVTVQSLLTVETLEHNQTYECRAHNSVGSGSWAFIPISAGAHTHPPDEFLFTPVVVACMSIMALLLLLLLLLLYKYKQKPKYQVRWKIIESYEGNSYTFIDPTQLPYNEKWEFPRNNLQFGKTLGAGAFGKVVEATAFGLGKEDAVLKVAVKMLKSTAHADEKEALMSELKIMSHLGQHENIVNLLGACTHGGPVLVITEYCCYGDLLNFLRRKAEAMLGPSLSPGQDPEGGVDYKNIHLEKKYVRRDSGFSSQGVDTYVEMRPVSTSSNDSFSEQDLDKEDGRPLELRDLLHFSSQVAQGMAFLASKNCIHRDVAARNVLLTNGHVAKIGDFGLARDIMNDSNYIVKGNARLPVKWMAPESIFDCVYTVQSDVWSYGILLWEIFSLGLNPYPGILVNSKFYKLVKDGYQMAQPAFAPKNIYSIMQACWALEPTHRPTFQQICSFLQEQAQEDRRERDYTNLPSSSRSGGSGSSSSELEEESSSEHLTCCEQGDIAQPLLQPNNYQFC
Sequence of Platelet-derived growth factor receptor alpha (Homo sapiens) (P16234 whole entry): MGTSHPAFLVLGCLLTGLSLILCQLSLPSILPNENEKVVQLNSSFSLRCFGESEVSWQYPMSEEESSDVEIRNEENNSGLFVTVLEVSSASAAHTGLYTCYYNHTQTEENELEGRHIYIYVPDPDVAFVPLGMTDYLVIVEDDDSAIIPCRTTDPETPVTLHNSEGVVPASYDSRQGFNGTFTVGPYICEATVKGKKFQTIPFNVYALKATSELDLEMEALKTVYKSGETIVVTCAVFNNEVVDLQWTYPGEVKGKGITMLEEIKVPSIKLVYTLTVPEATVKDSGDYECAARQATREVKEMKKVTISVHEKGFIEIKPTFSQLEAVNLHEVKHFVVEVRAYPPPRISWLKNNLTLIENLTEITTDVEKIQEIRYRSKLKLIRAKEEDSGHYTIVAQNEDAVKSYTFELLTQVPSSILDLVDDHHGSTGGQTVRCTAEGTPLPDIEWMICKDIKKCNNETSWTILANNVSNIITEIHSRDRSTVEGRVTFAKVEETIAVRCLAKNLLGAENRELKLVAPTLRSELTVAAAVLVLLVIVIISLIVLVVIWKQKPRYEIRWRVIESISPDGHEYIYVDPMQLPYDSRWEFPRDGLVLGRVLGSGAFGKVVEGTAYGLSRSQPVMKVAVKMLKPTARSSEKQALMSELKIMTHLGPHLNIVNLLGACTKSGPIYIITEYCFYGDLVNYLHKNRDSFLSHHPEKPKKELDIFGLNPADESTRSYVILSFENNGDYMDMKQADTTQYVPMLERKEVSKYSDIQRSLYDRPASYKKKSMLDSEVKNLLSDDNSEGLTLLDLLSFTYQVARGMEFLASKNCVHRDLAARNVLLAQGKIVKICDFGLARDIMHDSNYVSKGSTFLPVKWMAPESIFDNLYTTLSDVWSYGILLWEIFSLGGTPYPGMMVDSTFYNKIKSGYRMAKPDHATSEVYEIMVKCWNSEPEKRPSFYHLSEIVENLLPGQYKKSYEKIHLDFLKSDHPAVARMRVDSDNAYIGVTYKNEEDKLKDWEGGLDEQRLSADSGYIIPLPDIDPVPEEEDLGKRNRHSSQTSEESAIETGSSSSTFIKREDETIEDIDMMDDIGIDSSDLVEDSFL
Sequence of 3-phosphoinositide-dependent protein kinase 1 (Homo sapiens) (O15530 whole entry, looked up): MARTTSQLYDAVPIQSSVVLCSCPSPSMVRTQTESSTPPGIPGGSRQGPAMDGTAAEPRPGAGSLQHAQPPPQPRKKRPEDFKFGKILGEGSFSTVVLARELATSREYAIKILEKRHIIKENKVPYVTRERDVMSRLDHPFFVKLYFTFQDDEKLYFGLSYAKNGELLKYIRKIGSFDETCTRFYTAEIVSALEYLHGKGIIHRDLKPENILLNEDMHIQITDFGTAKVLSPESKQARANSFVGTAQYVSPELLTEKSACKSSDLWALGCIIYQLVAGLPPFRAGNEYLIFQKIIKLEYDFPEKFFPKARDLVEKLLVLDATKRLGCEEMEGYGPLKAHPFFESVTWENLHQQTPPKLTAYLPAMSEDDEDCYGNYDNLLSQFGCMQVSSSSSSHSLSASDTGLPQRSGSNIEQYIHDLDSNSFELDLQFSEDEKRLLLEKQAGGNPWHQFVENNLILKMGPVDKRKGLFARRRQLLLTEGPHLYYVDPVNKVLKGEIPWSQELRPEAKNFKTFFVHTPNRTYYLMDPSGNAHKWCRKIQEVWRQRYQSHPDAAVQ

residual activity [1] [%] | residual activity [2] [%] | residual activity [3] [%] | residual activity [4] [%] | residual activity [5] [%] | residual activity [6] [%] | residual activity [7] [%] | residual activity [8] [%] | residual activity [9] [%] | residual activity [10] [%] | residual activity [11] [%] | residual activity [12] [%] | residual activity [13] [%] | residual activity [14] [%] | residual activity [15] [%] | residual activity [16] [%] | residual activity [17] [%] | IC50 [18] [nM] | residual activity [19] [%] | SMILES
86 | 33 | 110 | 90 | 121 | 107 | 98 | 113 | 94 | 103 | 94 | 93 | 115 | 130 | 91 | 98 | 98 | 3 | 98 | CN(C)c1nc2ccc1CCCn1cc(c3ccccc31)C1=C(C(=O)NC1=O)c1cn(c3ccccc13)CC2
101 | 5 | 103 | 102 | 132 | 119 | 105 | 129 | 101 | 84 | 114 | 106 | 104 | 119 | 98 | 108 | 91 | 7 | 101 | CN(C)c1cc2cc(n1)CCCn1cc(c3ccccc31)C1=C(C(=O)NC1=O)c1cn(c3ccccc13)CCC2
105 | 5 | 107 | 99 | 129 | 126 | 99 | 121 | 99 | 100 | 112 | 103 | 107 | 119 | 99 | 104 | 95 | 11 | 108 | O=C1NC(=O)C2=C1c1cn(c3ccccc13)CCCc1cc(nc(N3CCCC3)c1)CCCn1cc2c2ccccc21
109 | 25 | 104 | 104 | 132 | 113 | 116 | 130 | 106 | 86 | 106 | 105 | 100 | 113 |  | 110 | 84 | 30 |  | O=C1NC(=O)C2=C1c1cn(c3ccccc13)CCCc1ccc(c(N3CCCC3)n1)CCCn1cc2c2ccccc21
